Measured values as given in PubChem BioAssay (NCI).
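Values below derive from 48-hour exposures of cells grown in 96-well plates, with endpoints linearly interpolated between the two concentrations bracketing the appropriate inhibition level. The concentration for 50% growth inhibition is given as GI50. TGI: concentration producing complete growth inhibition.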

Key:
Experiment in all cases: DTP human tumour cell line panel, 48 h
786-0 renal = tested on: 786-0 renal
A498 renal = tested on: A498 renal
A549 NSCLC = tested on: A549 NSCLC
ACHN renal = tested on: ACHN renal
CAKI-1 renal = tested on: CAKI-1 renal
CCRF-CEM leukemia = tested on: CCRF-CEM leukemia
COLO 205 colon = tested on: COLO 205 colon
DU-145 prostate = tested on: DU-145 prostate
HCC-2998 colon = tested on: HCC-2998 colon
HCT-116 colon = tested on: HCT-116 colon
HCT-15 colon = tested on: HCT-15 colon
HL-60(TB) leukemia = tested on: HL-60(TB) leukemia
HOP-62 NSCLC = tested on: HOP-62 NSCLC
HOP-92 NSCLC = tested on: HOP-92 NSCLC
HS 578T breast = tested on: HS 578T breast
HT29 colon = tested on: HT29 colon
IGROV1 ovarian = tested on: IGROV1 ovarian
K-562 leukemia = tested on: K-562 leukemia
KM12 colon = tested on: KM12 colon
LOX IMVI melanoma = tested on: LOX IMVI melanoma
M14 melanoma = tested on: M14 melanoma
MALME-3M melanoma = tested on: MALME-3M melanoma
MCF7 breast = tested on: MCF7 breast
MDA-MB-231 breast = tested on: MDA-MB-231 breast
MOLT-4 leukemia = tested on: MOLT-4 leukemia
NCI-H226 lung = tested on: NCI-H226 lung
NCI-H23 lung = tested on: NCI-H23 lung
NCI-H460 lung = tested on: NCI-H460 lung
NCI-H522 lung = tested on: NCI-H522 lung
NCI/ADR-RES ovarian = tested on: NCI/ADR-RES ovarian
OVCAR-3 ovarian = tested on: OVCAR-3 ovarian
OVCAR-4 ovarian = tested on: OVCAR-4 ovarian
OVCAR-5 ovarian = tested on: OVCAR-5 ovarian
OVCAR-8 ovarian = tested on: OVCAR-8 ovarian
PC-3 prostate = tested on: PC-3 prostate
RPMI-8226 leukemia = tested on: RPMI-8226 leukemia
SF-268 CNS = tested on: SF-268 CNS
SF-295 CNS = tested on: SF-295 CNS
SK-MEL-2 melanoma = tested on: SK-MEL-2 melanoma
SK-MEL-28 melanoma = tested on: SK-MEL-28 melanoma
SK-MEL-5 melanoma = tested on: SK-MEL-5 melanoma
SK-OV-3 ovarian = tested on: SK-OV-3 ovarian
SN12C renal = tested on: SN12C renal
SNB-19 CNS = tested on: SNB-19 CNS
SNB-75 CNS = tested on: SNB-75 CNS
SR leukemia = tested on: SR leukemia
SW-620 colon = tested on: SW-620 colon
T-47D breast = tested on: T-47D breast
TK-10 renal = tested on: TK-10 renal
U251 CNS = tested on: U251 CNS
UACC-257 melanoma = tested on: UACC-257 melanoma
UACC-62 melanoma = tested on: UACC-62 melanoma
UO-31 renal = tested on: UO-31 renal
BT-549 breast = tested on: BT-549 breast
EKVX NSCLC = tested on: EKVX NSCLC
MDA-MB-435 = tested on: MDA-MB-435
RXF 393 renal = tested on: RXF 393 renal
SF-539 CNS = tested on: SF-539 CNS

In the case of `Cc1ccc(NC(=O)c2sc3nc4c(cc3c2N)C(=O)CCC4)cc1C`, the GI50 (786-0 renal) is reported as 0.699 µM, the TGI (786-0 renal) is reported as over 100 µM and the GI50 (A498 renal) is reported as 0.198 µM. It also gave a TGI (A498 renal) of 0.658 µM, a GI50 (A549 NSCLC) of 0.704 µM and a TGI (A549 NSCLC) of over 100 µM. The GI50 (ACHN renal) was 1.42 µM, the TGI (ACHN renal) was over 100 µM and the GI50 (CAKI-1 renal) was 0.661 µM. For the same molecule, the TGI (CAKI-1 renal) was over 100 µM, the GI50 (CCRF-CEM leukemia) was 0.377 µM and the TGI (CCRF-CEM leukemia) was 97 µM. It also gave a GI50 (COLO 205 colon) of 0.309 µM, a TGI (COLO 205 colon) of 0.936 µM and a GI50 (DU-145 prostate) of 0.673 µM. It also gave a TGI (DU-145 prostate) of over 100 µM, a GI50 (HCC-2998 colon) of 1.96 µM and a TGI (HCC-2998 colon) of over 100 µM. The GI50 (HCT-116 colon) was 0.546 µM, the TGI (HCT-116 colon) was over 100 µM and the GI50 (HCT-15 colon) was 0.556 µM. For the same molecule, the TGI (HCT-15 colon) was over 100 µM, the GI50 (HL-60(TB) leukemia) was 0.36 µM and the TGI (HL-60(TB) leukemia) was 1.72 µM. For the same molecule, the GI50 (HOP-62 NSCLC) was 0.733 µM, the TGI (HOP-62 NSCLC) was over 100 µM and the TGI (HOP-92 NSCLC) was over 100 µM. For the same molecule, the GI50 (HS 578T breast) was 0.442 µM, the TGI (HS 578T breast) was over 100 µM and the GI50 (HT29 colon) was 0.399 µM. It also gave a TGI (HT29 colon) of 11.2 µM, a GI50 (IGROV1 ovarian) of 2.2 µM and a TGI (IGROV1 ovarian) of over 100 µM. It also gave a GI50 (K-562 leukemia) of 0.468 µM, a TGI (K-562 leukemia) of 35 µM and a GI50 (KM12 colon) of 0.486 µM. It also gave a TGI (KM12 colon) of over 100 µM, a GI50 (LOX IMVI melanoma) of 0.837 µM and a TGI (LOX IMVI melanoma) of over 100 µM. It also gave a GI50 (M14 melanoma) of 0.602 µM, a TGI (M14 melanoma) of over 100 µM and a TGI (MALME-3M melanoma) of over 100 µM. For the same molecule, the GI50 (MCF7 breast) was 0.352 µM, the TGI (MCF7 breast) was over 100 µM and the GI50 (MDA-MB-231 breast) was 1.65 µM. The TGI (MDA-MB-231 breast) was over 100 µM, the GI50 (MOLT-4 leukemia) was 6.41 µM and the TGI (MOLT-4 leukemia) was 76.2 µM. For the same molecule, the GI50 (NCI-H226 lung) was 27.3 µM, the TGI (NCI-H226 lung) was over 100 µM and the GI50 (NCI-H23 lung) was 1.41 µM. For the same molecule, the TGI (NCI-H23 lung) was over 100 µM, the GI50 (NCI-H460 lung) was 0.399 µM and the TGI (NCI-H460 lung) was over 43.5 µM. It also gave a GI50 (NCI-H522 lung) of 0.276 µM, a TGI (NCI-H522 lung) of 4.88 µM and a GI50 (NCI/ADR-RES ovarian) of 0.784 µM. For the same molecule, the TGI (NCI/ADR-RES ovarian) was over 100 µM, the GI50 (OVCAR-3 ovarian) was 0.345 µM and the TGI (OVCAR-3 ovarian) was 1.6 µM. For the same molecule, the GI50 (OVCAR-4 ovarian) was 1.13 µM, the TGI (OVCAR-4 ovarian) was over 100 µM and the GI50 (OVCAR-5 ovarian) was 3.16 µM. It also gave a TGI (OVCAR-5 ovarian) of over 100 µM, a GI50 (OVCAR-8 ovarian) of 3.45 µM and a TGI (OVCAR-8 ovarian) of over 100 µM. For the same molecule, the GI50 (PC-3 prostate) was 0.607 µM, the TGI (PC-3 prostate) was over 100 µM and the GI50 (RPMI-8226 leukemia) was 1.57 µM. It also gave a TGI (RPMI-8226 leukemia) of over 30.4 µM, a GI50 (SF-268 CNS) of 4.47 µM and a TGI (SF-268 CNS) of over 100 µM. It also gave a GI50 (SF-295 CNS) of 0.358 µM, a TGI (SF-295 CNS) of over 100 µM and a GI50 (SK-MEL-2 melanoma) of 0.464 µM. The TGI (SK-MEL-2 melanoma) was over 100 µM, the GI50 (SK-MEL-28 melanoma) was 1.86 µM and the TGI (SK-MEL-28 melanoma) was over 100 µM. It also gave a GI50 (SK-MEL-5 melanoma) of 0.418 µM, a TGI (SK-MEL-5 melanoma) of 21.6 µM and a GI50 (SK-OV-3 ovarian) of 0.533 µM. It also gave a TGI (SK-OV-3 ovarian) of over 100 µM, a GI50 (SN12C renal) of 0.797 µM and a TGI (SN12C renal) of over 100 µM. It also gave a GI50 (SNB-19 CNS) of 0.652 µM, a TGI (SNB-19 CNS) of over 100 µM and a GI50 (SNB-75 CNS) of 0.313 µM. It also gave a TGI (SNB-75 CNS) of over 100 µM, a GI50 (SR leukemia) of 0.499 µM and a TGI (SR leukemia) of 26.8 µM. The GI50 (SW-620 colon) was 0.417 µM, the TGI (SW-620 colon) was over 100 µM and the GI50 (T-47D breast) was 0.533 µM. For the same molecule, the TGI (T-47D breast) was over 73.2 µM, the GI50 (TK-10 renal) was over 70 µM and the TGI (TK-10 renal) was over 100 µM. For the same molecule, the GI50 (U251 CNS) was 0.765 µM, the TGI (U251 CNS) was over 56.7 µM and the GI50 (UACC-257 melanoma) was 21.6 µM. It also gave a TGI (UACC-257 melanoma) of over 100 µM, a GI50 (UACC-62 melanoma) of 0.496 µM and a TGI (UACC-62 melanoma) of over 100 µM. For the same molecule, the GI50 (UO-31 renal) was 1.81 µM and the TGI (UO-31 renal) was over 100 µM.
`COc1ccc(C2C3CCc4ccccc4C3=NN2S(=O)(=O)c2ccc(/C=C/C(=O)O)cc2)cc1` (stereo not given) gave a TGI (786-0 renal) of 15.9 µM, a TGI (A549 NSCLC) of 54.4 µM and a TGI (ACHN renal) of 14.1 µM. For the same molecule, the TGI (BT-549 breast) was over 100 µM, the TGI (CAKI-1 renal) was over 100 µM and the TGI (CCRF-CEM leukemia) was 22.9 µM. For the same molecule, the TGI (COLO 205 colon) was 7.43 µM, the TGI (DU-145 prostate) was over 100 µM and the TGI (EKVX NSCLC) was over 100 µM. For the same molecule, the TGI (HCT-116 colon) was 38.2 µM, the TGI (HCT-15 colon) was 0.717 µM and the TGI (HL-60(TB) leukemia) was 9.67 µM. The TGI (HOP-62 NSCLC) was over 100 µM, the TGI (HOP-92 NSCLC) was over 100 µM and the TGI (HT29 colon) was 13.6 µM. The TGI (IGROV1 ovarian) was 4.91 µM, the TGI (K-562 leukemia) was 15.7 µM and the TGI (KM12 colon) was 43.4 µM. For the same molecule, the TGI (LOX IMVI melanoma) was 24.5 µM, the TGI (M14 melanoma) was over 100 µM and the TGI (MALME-3M melanoma) was 23.1 µM. For the same molecule, the TGI (MCF7 breast) was 6.55 µM, the TGI (MDA-MB-231 breast) was over 100 µM and the TGI (MDA-MB-435) was 2.69 µM. The TGI (MOLT-4 leukemia) was 25.3 µM, the TGI (NCI-H226 lung) was 74.7 µM and the TGI (NCI-H23 lung) was 1.87 µM. It also gave a TGI (NCI-H460 lung) of 96.5 µM, a TGI (NCI-H522 lung) of 7.04 µM and a TGI (OVCAR-3 ovarian) of 86.3 µM. It also gave a TGI (OVCAR-4 ovarian) of 54.1 µM, a TGI (OVCAR-5 ovarian) of over 100 µM and a TGI (OVCAR-8 ovarian) of 92.5 µM. For the same molecule, the TGI (PC-3 prostate) was over 100 µM, the TGI (RPMI-8226 leukemia) was 16 µM and the TGI (RXF 393 renal) was 31.4 µM. The TGI (SF-268 CNS) was 71.2 µM, the TGI (SF-295 CNS) was 9.08 µM and the TGI (SF-539 CNS) was 6.29 µM. For the same molecule, the TGI (SK-MEL-2 melanoma) was 9.79 µM, the TGI (SK-MEL-5 melanoma) was 18.6 µM and the TGI (SK-OV-3 ovarian) was 4.72 µM. It also gave a TGI (SN12C renal) of over 100 µM, a TGI (SNB-19 CNS) of over 100 µM and a TGI (SR leukemia) of 6.9 µM. It also gave a TGI (SW-620 colon) of over 100 µM, a TGI (T-47D breast) of over 100 µM and a TGI (TK-10 renal) of over 100 µM. It also gave a TGI (U251 CNS) of 11.6 µM, a TGI (UACC-62 melanoma) of 23.8 µM and a TGI (UO-31 renal) of 38 µM.
